Measurements taken from ChEMBL document CHEMBL6078714, “Discovery of N-Trifluoromethylated Noscapines as Novel and Potent Agents for the Treatment of Glioblastoma” (J Med Chem, 2025).
The source made the active and inactive calls. The rule behind the calls is not given here.

Columns and labels:
[1] = Toxicity in male BALB/c nude mouse xenografted with human U-118-MG cells assessed as effect on serum ALT level at 2.5 to 10 mg/kg, ip administered daily for 4 weeks; assay type: organism-based; settings: in vivo, 672 h, dose 2.5-10 mg/kg
U-118-MG [2] = experiment: Cell cycle arrest in human U-118-MG cells assessed as accumulation of cells at S phase at 20 uM incubated for 24 hrs by flow cytometric analysis (reference value: 10.7 %); assay type: functional
U-118-MG [3] = experiment: Antitumor activity against human U-118-MG cells xenografted in male BALB/c nude mouse assessed as tumor growth inhibition at 5 mg/kg, ip administered daily for 4 weeks relative to control; assay type: functional; settings: 672 h, read-out: TGI
U-118-MG [4] = experiment: Induction of apoptosis in human U-118-MG cells incubated for 24 hrs by Annexin V-FITC/PI staining based flow cytometric analysis; assay type: functional, cell-based; settings: dose 3-40 µM
[5] = Drug distribution in Sprague-Dawley rat plasma at 5 mg/kg, ip measured after 0.5 hrs; assay type: ADME, organism-based
[6] = Drug distribution in Sprague-Dawley rat brain at 5 mg/kg, ip measured after 0.5 hrs; assay type: ADME, organism-based; settings: read-out: Ct
U-118-MG [7] = experiment: Induction of apoptosis in human U-118-MG cells assessed as apoptotic rate at 20 uM incubated for 24 hrs by Annexin V-FITC/PI staining based flow cytometric analysis relative to control; assay type: functional
U-118-MG [8] = experiment: Cell cycle arrest in human U-118-MG cells assessed as accumulation of cells at S phase at 30 uM incubated for 24 hrs by flow cytometric analysis (reference value: 10.7 %); assay type: functional
[9] = Toxicity in male BALB/c nude mouse xenografted with human U-118-MG cells assessed as metastasis in heart at 2.5 to 10 mg/kg, ip administered daily for 4 weeks by H and E staining based analysis; assay type: organism-based; settings: in vivo, 672 h, dose 2.5-10 mg/kg
U-118-MG [10] = experiment: Cytotoxicity against human U-118-MG cells assessed as reduction in cell viability at 0.1 to 10 uM incubated for 24 hrs; assay type: functional, cell-based; settings: dose 0.1-10 µM
[11] = Tmax in Sprague-Dawley rat at 5 mg/kg, ip; assay type: ADME, organism-based; settings: in vivo
[12] = Half-life in Sprague-Dawley rat at 5 mg/kg, ip; assay type: ADME, organism-based; settings: in vivo
[13] = Toxicity in male BALB/c nude mouse xenografted with human U-118-MG cells assessed as metastasis in kidney at 2.5 to 10 mg/kg, ip administered daily for 4 weeks by H and E staining based analysis; assay type: organism-based; settings: in vivo, 672 h, dose 2.5-10 mg/kg
[14] = Stability of compound in sodium phosphate buffer at pH 7.4 measured after 48 hrs by 1H NMR analysis; assay type: physicochemical; settings: pH 7.4, 48 h
U-118-MG [15] = experiment: Cell cycle arrest in human U-118-MG cells assessed as accumulation of cells at G2 phase at 10 uM incubated for 24 hrs by flow cytometric analysis (reference value: 30.6 %); assay type: functional
[16] = Observed volume of distribution in Sprague-Dawley rat at 5 mg/kg, ip; assay type: ADME, organism-based; settings: in vivo
[17] = Bioavailability in Sprague-Dawley rat at 5 mg/kg, ip; assay type: ADME, organism-based; settings: in vivo
U-118-MG [18] = experiment: Cell cycle arrest in human U-118-MG cells assessed as accumulation of cells at G2 phase at 20 uM incubated for 24 hrs by flow cytometric analysis (reference value: 30.6 %); assay type: functional
U-118-MG [19] = experiment: Induction of apoptosis in human U-118-MG cells assessed as downregulation of c-Myc expression level at 1 to 40 uM incubated for 24 hrs by Western blot analysis; assay type: functional, cell-based; settings: dose 1-40 µM

concentration at 0.5 h [5]: 99.6 ng/mL
concentration at 0.5 h [6]: 35.4 ng/g
Tmax [11]: 0.5 h
half-life [12]: 5.64 h
Stability [14]: Stable
Vd [16]: 65.2 L/kg
bioavailability [17]: 61.3%
SMILES: COc1ccc2c(c1OC)C(=O)O[C@@H]2[C@H]1c2c(c(Br)c3c(c2OC)OCO3)CCN1C(F)(F)F
Activity [1]: Non-toxic
Activity (U-118-MG [2]): 9.68%
inhibition in vivo at 5 mg/kg (U-118-MG [3]): 37.7%
Activity (U-118-MG [4]): Dose-dependent-effect
Activity (U-118-MG [7]): 23.7%
Activity (U-118-MG [8]): 14.8%
Activity [9]: Non-toxic
Activity (U-118-MG [10]): inactive
Activity [13]: Non-toxic
Activity (U-118-MG [15]): 32.1%
Activity (U-118-MG [18]): 40%
Activity (U-118-MG [19]): Active
